Data from the NIST ThermoML archive (doi:10.1021/je500239t).
Where “and” joins values, the source holds several entries; their conditions need not be identical. Equal entries are not always repeated.

Settings: for mass density: Liquid, isochoric method; for surface tension liquid-gas: Ring tensiometer

CCCCCCCCCCCCCC[P+](CCCCCC)(CCCCCC)CCCCCC.O=S(=O)([N-]S(=O)(=O)C(F)(F)F)C(F)(F)F
Settings | mass density [kg/m3]
219.01 K, 845.2 kPa | 1126.5
225.43 K, 10086 kPa | 1125.99
225.43 K, 30200 kPa | 1132.83
232.16 K, 19479 kPa | 1125.46
233.47 K, 2869.4 kPa | 1117.39
239.5 K, 10003 kPa | 1116.86
239.51 K, 29986 kPa | 1124.87
246.7 K, 20172 kPa | 1116.37
247.35 K, 40212 kPa | 1124.27
247.71 K, 1577.7 kPa | 1107.13
254.34 K, 29850 kPa | 1115.68
254.34 K, 29998 kPa | 1115.78
254.36 K, 9848.1 kPa | 1106.63
255.79 K, 51007 kPa | 1123.62
262.3 K, 20026 kPa | 1106.02
262.46 K, 40028 kPa | 1115.06
263.55 K, 901 kPa | 1095.02
268.29 K, 100 kPa | 1090.79
270.61 K, 30010 kPa | 1105.4
270.69 K, 9770.1 kPa | 1094.49
270.95 K, 49862 kPa | 1114.43
273.26 K, 100 kPa | 1087.18
278.4 K, 100 kPa | 1083.71
279.46 K, 39911 kPa | 1104.75
280.16 K, 20417 kPa | 1093.79
281.02 K, 1048.9 kPa | 1082.63
283.3 K, 100 kPa | 1079.84
288.55 K, 100 kPa | 1076.14
288.56 K, 49907 kPa | 1104.08
288.91 K, 10149 kPa | 1082.04
288.92 K, 30030 kPa | 1093.15
292.93 K, 100 kPa | 1072.95
298 K, 39766 kPa | 1092.49
298.17 K, 191.9 kPa | 1068.8
298.17 K, 19640 kPa | 1081.39
298.19 K, 100 kPa | 1068.54
299.08 K, 1497.9 kPa | 1069.18
303.24 K, 100 kPa | 1065.2
307.5 K, 49581 kPa | 1091.81
307.85 K, 10007 kPa | 1068.57
308.01 K, 100 kPa | 1061.72
308.08 K, 30024 kPa | 1080.67
309.27 K, 1043.1 kPa | 1061.06
313.17 K, 100 kPa | 1057.68
318.03 K, 39710 kPa | 1079.97
318.05 K, 100 kPa | 1054.69
318.08 K, 19797 kPa | 1067.86
318.16 K, 9063.9 kPa | 1060.46
318.96 K, 1508.5 kPa | 1054.33
323.08 K, 100 kPa | 1051.01
328.31 K, 100 kPa | 1047.34
328.73 K, 10024 kPa | 1053.67
328.99 K, 49945 kPa | 1079.21
329.13 K, 30007 kPa | 1067.09
329.82 K, 733.9 kPa | 1046.15
329.83 K, 19983 kPa | 1059.65
333.03 K, 100 kPa | 1044.1
338.51 K, 100 kPa | 1040.38
339.97 K, 40003 kPa | 1066.34
340.03 K, 20057 kPa | 1052.9
340.84 K, 1346 kPa | 1038.9
340.84 K, 10036 kPa | 1045.42
341.21 K, 30097 kPa | 1058.87
342.84 K, 100 kPa | 1037.08
348.34 K, 100 kPa | 1033.83
350.84 K, 50030 kPa | 1065.58
353.13 K, 100 kPa | 1030.2
353.15 K, 20345 kPa | 1044.59
353.15 K, 31348 kPa | 1052.01
353.15 K, 40207 kPa | 1058.06
353.16 K, 11244 kPa | 1038.09
358.18 K, 100 kPa | 1026.93
364.28 K, 100 kPa | 1022.11

Settings | surface tension liquid-gas
273.49 K | 31.49 mN/m
273.52 K | 31.51 mN/m
278.33 K | 31.18 mN/m
278.52 K | 31.21 mN/m
283.37 K | 30.85 mN/m
283.39 K | 30.94 mN/m
288.38 K | 30.66 mN/m
288.5 K | 30.56 mN/m
293.37 K | 30.35 mN/m
298.24 K | 30.13 mN/m
298.25 K | 30.11 mN/m
303.15 K | 29.82 mN/m
303.17 K | 29.89 mN/m
308.18 K | 29.56 mN/m
308.21 K | 29.37 mN/m
313.21 K | 29.15 mN/m
313.22 K | 29.24 mN/m
318.2 K | 29.03 mN/m
318.23 K | 28.86 mN/m
323.19 K | 28.56 mN/m
323.28 K | 28.54 mN/m
328.11 K | 28.34 mN/m
328.28 K | 27.99 mN/m
333.15 K | 27.89 mN/m and 27.98 mN/m
338.1 K | 27.59 mN/m
338.13 K | 27.94 mN/m
343 K | 27.46 mN/m
343.05 K | 27.3 mN/m
348 K | 27.14 mN/m
348.34 K | 26.92 mN/m
353.32 K | 26.56 mN/m
353.33 K | 26.79 mN/m
358.1 K | 26.38 mN/m
358.49 K | 26.45 mN/m
364.76 K | 26.01 mN/m
364.97 K | 25.93 mN/m
